The assay relates to Male Sprague-Dawley rats. The assay is described as follows: Spinal anesthetic effect (spinal blockade) after intrathecal injection in rats. Format: in vivo. Details: AUC of time-% PE curve, spinal blockade of motor function / AUC of time-% PE curve, spinal blockade of proprioception / AUC of time-% PE curve, spinal blockade of nociceptive reaction: unit not given beside the values. The protocol: Male Sprague-Dawley rats (weighing about 300 to 350 g); for each dose of each drug, n=6.
In brief, for preparation, the hairs on the back of each rat were shaved, and the shaved back was sterilized with iodine.
After three minutes, 50 μL of each of the tested drugs was injected via a 27-gauge needle attached to a 100-μL syringe (Hamilton, Reno, Nev.) into the intrathecal space between the fourth and fifth lumbar vertebrae. The development of spinal blockade was observed from the paralysis of the hind limbs of the rats.
The magnitude of nerve block (including blocking of motor function, proprioception, and nociceptive reaction) was expressed as the percentage of possible effect (hereinafter referred to as % PE), and the maximal value of % PE was expressed as the percentage of maximal possible effect (hereinafter referred to as % MPE).
Motor function was evaluated by measuring the extensor postural thrust of the right hind limbs of the rats using a digital platform balance (Mettler Toledo, Switzerland, model PB1502-S). To test the extensor postural thrust, the rat was held upright with the hind limb extended, so that the body weight of the rat was supported by the distal metatarsus and toes. The extensor postural thrust could be measured as the force of the right hind limb of the rat thrusting the platform balance.
A reduction in the force, resulting in extensor muscle tone, was considered as a motor deficit. A force less than 20 g (i.e., a weight of the “flaccid limb”) was considered absence of an extensor postural thrust or 100% motor block or 100% MPE.
Proprioception was evaluated based on resting posture and postural reactions (including tactile placing and hopping). First, the front half of the rat body and one of the hind limbs were lifted off the ground at the same time so that the rat was standing on one hind limb. Then, the rat was moved laterally, which normally evoked a prompt hopping response of the weight-bearing hind limb of the rat in the direction of movement so as to avoid falling. A predominantly proprioceptive block caused a delayed hopping followed by greater lateral hops. […] Functional deficits were classified into four grades: 3 (normal or 0% MPE), 2 (slightly impaired), 1 (severely impaired), and 0 (completely impaired or 100% MPE).
Nociceptive reaction was evaluated by the withdrawal reflex or vocalization elicited by the pinch of a skin fold over the back at 1 cm near the proximal part of the tail, the lateral metatarsus of the bilateral hind limbs, and the dorsal part of the mid-tail. At each testing time, only one pinch was given to each of the abovementioned four testing sites, and the time interval between stimulations at different sites was around 2 seconds. Nociceptive reactions were classified into five grades: 4 (normal or 0% MPE), 3 (25% MPE), 2 (50% MPE), 1 (75% MPE), and 0 (absent or 100% MPE).
The potency of each drug on spinal blockades was compared using ED50.
Duration was defined as the interval from injection of the tested drugs to complete recovery. The ED25, ED50 and ED75 obtained according to the SAS NLIN analysis in the preceding section “C. Potency evaluation” were used in this experiment.
Regarding the method of evaluating the effect of co-administration, dextromethorphan hydrobromide monohydrate was used as an example.
After the tests, the time of measurement of each drug and its corresponding % PE were plotted to obtain the time-% PE curves of each drug. The area under the curve (AUC) of time-% PE was calculated using the trapezoidal rule, and was used to evaluate the effect of the co-administration of the drugs.
Statistical software, SPSS for Windows® (version 10.0.7) was used. Data were represented as mean±SEM.

[1] abbreviates: intrathecal, rats, 2 ED50 when administered independently, ED50 of each drug when co-administered, mean ± SEM.
Where [2] appears, read: spinal blockade, mean of motor function, proprioception and nociceptive reaction, intrathecal, rats.

We go through one compound from patent US20080070939A1, “LOCAL […] COMPOSITIONS CONTAINING DEXTROROTATORY MORPHINAN DERIVATIVES OR PHARMACEUTICALLY ACCEPTABLE SALTS THEREOF” (CHI MEI FOUNDATION HOSPITAL, priority 2006, published 2008).

Where a name gives a salt, the structure may show the parent alone.

For the compound `COc1ccc2c(c1)[C@]13CCCC[C@@H]1[C@H](C2)N(C)CC3` [Dextromethorphan hydrobromide monohydrate], where the note is “intrathecal dose of ED75, rats”, the “% MPE of spinal blockades of motor function, proprioception and nociceptive reaction (range over the three functions)” value is given as 66-80 % MPE; the “duration of spinal blockades of motor function, proprioception and nociceptive reaction (range over the three functions)” value lay in the range of 22 to 40 min. Moreover, under “intrathecal, rats, ED50 of each drug”, the “effect of co-administration with bupivacaine hydrochloride on spinal blockade” value is on record as “additive effect”. In addition, under setting [1], the “AUC of time-% PE curve, spinal blockade of motor function” value was 953 ± 114; the “AUC of time-% PE curve, spinal blockade of nociceptive reaction” value is 4131 ± 385; the “AUC of time-% PE curve, spinal blockade of proprioception” value was determined as 1985 ± 219. Moreover, the “Motor function ED50 (95% CI)” value (spinal blockade of motor function, intrathecal injection, rats) was 0.56 (0.54–0.59) mg. Also, the “Nociceptive reaction ED50 (95% CI)” value (spinal blockade of nociceptive reaction, intrathecal injection, rats) is on record as 0.46 (0.43–0.49) mg. The “Proprioception ED50 (95% CI)” value (spinal blockade of proprioception, intrathecal injection, rats) is recorded as 0.48 (0.45–0.52) mg. Besides, under setting [2], the “Mean value ED25” value is given as 0.39 mg, the “Mean value ED50” value was found to be 0.50 mg and the “Mean value ED75” value stood at 0.65 mg.
